The experiment has as its target T1, Complex IV (cytochrome c oxidase) (Rattus norvegicus, UniProt P00406+P05503).
T1 construct: gene Mt-co1; native complex in saponin-permeabilized left ventricular (apex) cardiac fibers; dimer of 13 subunits per monomer; with Cytochrome c oxidase subunit 3; Cytochrome c oxidase subunit 4 isoform 1, mitochondrial; Cytochrome c oxidase subunit 5A, mitochondrial; Cytochrome c oxidase subunit 5B, mitochondrial; Cytochrome c oxidase subunit 6A2, mitochondrial; Cytochrome c oxidase subunit 6B1; Cytochrome c oxidase subunit 6C; Cytochrome c oxidase subunit 7A1, mitochondrial; Cytochrome c oxidase subunit 7B, mitochondrial; Cytochrome c oxidase subunit 7C, mitochondrial; Cytochrome c oxidase subunit 8B, mitochondrial
The experiment is described as follows: high-resolution respirometry (O2 consumption), permeabilized cardiac fibers. To be noted: ascorbate 2 mM/TMPD 0.5 mM as complex IV substrates, pH 7.1, 30°C, 1 g/l BSA in medium. The format is biochemical. The text has this:
high-resolution respirometry (O2 consumption), permeabilized cardiac fibers on Complex IV (cytochrome c oxidase)

The term IC50 denotes the midpoint of a concentration-inhibition curve. A lower IC50 goes with inhibition by little substance. For the molecule `CCCCCCCCCCCCCCCC(=O)O[C@H](CC(=O)[O-])C[N+](C)(C)C` [C16∶0c, Palmitoylcarnitine], the IC50 (Hillslope −0.86) turned out to be 72.3 µM.
As to `CCCCC/C=C\C/C=C\CCCCCCCC(=O)O[C@H](CC(=O)[O-])C[N+](C)(C)C` [C18∶2c, cis,cis-9,12-octadecadienoyl-L-carnitine], the IC50 (Hillslope −1.58) was determined as 65.6 µM.

The values above are taken from paper PMC3907505, “The Mechanism of Intralipid®-Mediated Cardioprotection Complex IV Inhibition by the Active Metabolite, Palmitoylcarnitine, Generates Reactive Oxygen Species and Activates Reperfusion Injury Salvage Kinases” (PLoS ONE, 2014).
